This is an account of results in patent US11547706B2, “Methods and compositions for reducing tactile dysfunction and anxiety associated with autism spectrum disorder, Rett syndrome, and Fragile X syndrome” (President and Fellows of Harvard College, priority 2016, dated 2023).

Assay [1] has as its system Advillin^Cre; Mecp2^f/y mutant mice and control littermates. The experiment in a line: Magnitude of startle response to a 125 dB noise after drug injection. In kind it is in vivo, mouse. The note with it: Midazolam 2.5 mg/kg injection, compared to animals treated with vehicle. As for the experimental part:
(§1) FIG. 15A is a graph showing the startle response of Advillin^Cre; Mecp2^f/y mutant mice and control littermates following injection of: vehicle (saline), Bumetanide (0.2 mg/kg), Midazolam (2.5 mg/kg) or isoguvacine (1 mg/kg). […] FIG. 15B is a graph showing the response to tactile PPI of Advillin^Cre; Mecp2^f/y mutant mice and control littermates following injection of: vehicle (saline), Bumetanide (0.2 mg/kg), Midazolam (2.5 mg/kg) or isoguvacine (1 mg/kg). […] FIG. 15C is a graph showing the response to air puff alone of Advillin^Cre; Mecp2^f/y mutant mice and control littermates following injection of: vehicle (saline), Bumetanide (0.2 mg/kg), Midazolam (2.5 mg/kg) or isoguvacine (1 mg/kg).
(§2) The response of mice to tactile and acoustic startle stimuli, and the ability of a tactile or acoustic stimulus to inhibit startle to a loud acoustic stimulus was measured using a San Diego Instruments startle reflex system (SR-LAB™ Startle Response System). […] Air puffs were administered to the back of the mouse to assess hairy skin sensitivity. […]
(§3) For acoustic PPI, the prepulse was 20 ms in duration and presented 100 ms before the startle pulse (inter-stimulus interval, ISI). […] Whole body flinch, or startle reflex, was quantitated using an accelerometer sensor measuring the amplitude of movement of the animal, within the cylindrical holder.

In assay [2] the test system is Advillin^Cre; Mecp2^f/y mutant mice. The experiment in a line: Tactile PPI assay after drug injection. In kind it is in vivo, mouse. As to conditions: Midazolam 2.5 mg/kg or isoguvacine 1 mg/kg injection. On the procedure:
as §1, §2, §3

For assay [3] the test system is unchanged. Description: Response to air puff stimulus alone after drug injection. In kind it is in vivo, mouse. The note with it: Midazolam 2.5 mg/kg or isoguvacine 1 mg/kg injection. On the procedure:
as §1
The response of mice to tactile and acoustic startle stimuli, and the ability of a tactile or acoustic stimulus to inhibit startle to a loud acoustic stimulus was measured using a San Diego Instruments startle reflex system (SR-LAB™ Startle Response System). […] Air puffs were administered to the back of the mouse to assess hairy skin sensitivity. […] In addition, this prepulse intensity was chosen because it produced significant inhibition of startle reflex at multiple (ISIs). […]

Assay [4] relates to large diameter DRG neurons cultured from control mice. The experiment in a line: Whole cell patch clamp recordings of cultured large diameter DRG neurons. In kind it is cell-based, mouse. The note with it: 10 μM isoguvacine, 5 minutes after application. The source says:
Repeated measures one-way ANOVA, *, p<0.05. […] Student's paired t-test, p<0.05. […] Repeated measures one-way ANOVA, *, p<0.05. […] Student's paired t-test, p<0.05.
These exciting findings prompted us to ask whether peripherally restricted GABAA receptor agonists could also be used to ameliorate tactile hypersensitivity and other behavioral deficits in ASD models. We utilized a peripherally restricted GABAA receptor agonist, isoguvacine, to determine whether augmenting GABAA receptor signaling at DRG cell bodies could reduce excitability of primary somatosensory afferents.

Assay [5] has as its system large diameter DRG neurons cultured from Shank3B^+/- or Mecp2^STOP/y mice. Description: Whole cell patch clamp recordings of cultured large diameter DRG neurons from mutant mice. In kind it is cell-based, mouse. As to conditions: 10 μM isoguvacine; for resting membrane potential / rheobase, excitability: neurons from Shank3B^+/- or Mecp2^STOP/y mice. The source says:
Repeated measures two-way ANOVA with post-hoc Tukey's test: *, p<0.05. […] Repeated measures two-way ANOVA with post-hoc Tukey's test: *, p<0.05. […] Repeated measures two-way ANOVA with post-hoc Tukey's test: *, p<0.05. […] Repeated measures two-way ANOVA with post-hoc Tukey's test: *, p<0.05.
We next determined whether isoguvacine could improve electrophysiological deficits observed in large diameter peripheral somatosensory neurons cultured from Shank3 and Mecp2 mutant mice.
Background: Patch clamp records ionic current or voltage across a cell membrane.

Assay [6] relates to Mecp2, Shank3 and Fmr1 mutant mice. Description: Tactile PPI assay in multiple ASD mouse models. In kind it is in vivo. As to conditions: 1 mg/kg, i.p., acute, 30 minutes before test. As for the experimental part:
(§4) Values are expressed as percent of control littermates' performance. Experiments were performed in mutant mice (Advillin^Cre; Mecp2^f/y, Shank3B^+/− or Fmr1^−/y) and control littermates, 30 minutes after an intraperitoneal (i.p.) of either saline (vehicle) or Isoguvacine (1 mg/kg). Two-way ANOVA, with post-hoc Holm-Sidak's test, *, p<0.05, when comparing mutants to control within same treatment; #, p<0.05, when comparing the same genotype across different treatments. FIG. 56B is a graph of response to a light air puff stimulus alone (0.9 PSI, 50 ms). Responses are expressed as a percent of startle response to a 125-B noise. Experiments were performed in mutant mice (Advillin^Cre; Mecp2^f/y, Shank3B^+/− or Fmr1^−/y) and control littermates, 30 minutes after an intraperitoneal (i.p.) of either saline (vehicle) or isoguvacine (1 mg/kg). Two-way ANOVA, with post-hoc Holm-Sidak's test, *, p<0.05, and t, p<0.10, when comparing mutants to control within same treatment; #, p<0.05, when comparing the same genotype across different treatments. FIG. 56C is a graph of magnitude of startle response to a 125-dB noise. […]
(§5) The response of mice to tactile and acoustic startle stimuli, and the ability of a tactile or acoustic stimulus to inhibit startle to a loud acoustic stimulus was measured using a San Diego Instruments startle reflex system (SR-LAB™ Startle Response System). […]

The subject of assay [7] is mice including Advillin^Cre; Mecp2^floxed mutant mice. The experiment in a line: Open field test after isoguvacine. The note with it: 1 mg/kg, i.p. In kind it is in vivo, mouse. As for the experimental part:
as §4
On the first day of behavioral testing, animals were subjected to the open field test. […] A portion of videos were blindly hand-scored to verify accuracy. Distance traveled and time spent away from walls (time in center) were analyzed per 10-minute video.

The test system of a further assay is control mice. Description: Tactile PPI with back hairy skin pretreated with lidocaine. In kind it is in vivo, mouse. As for the experimental part:
FIG. 1A is an image showing a smooth textured object (left) and a rough textured object (right) used in the textured NORT. FIG. 1B is a schematic outlining the protocol for the three NORT assays. FIG. 1C is a graph showing the discrimination indices for textured NORT. A positive value indicates preference for the novel object, compared to the familiar object. *, p<0.05. FIG. 1D is a graph showing the discrimination indices for 5 minute control NORT. A positive value indicates preference for the novel object, compared to the familiar object. *, p<0.05. FIG. 1E is a graph showing the discrimination indices for 1 hour control NORT. A positive value indicates preference for the novel object, compared to the familiar object. *, p<0.05. FIG. 1F is a schematic showing the tactile PPI assay. […] Responses are expressed as percent of startle response to a 125 dB noise. *, p<0.01. […] Responses are expressed as percent of startle response to a 125 dB noise. *, p<0.05. […]
as §5

Entries after “also recorded” stand apart in the source; their conditions may differ.

As to `Cc1ncc2n1-c1ccc(Cl)cc1C(c1ccccc1F)=NC2` [Midazolam], the startle amplitude result in assay [1] is “trend toward decreased startle amplitude”. Besides, the “responses in the tactile PPI assay” value in assay [2] is given as “trend toward normalized responses”. Moreover, in assay [3], the “response to an air puff stimulus alone” value is “decreased response to an air puff stimulus alone”.
As to `O=C(O)C1=CCNCC1` [isoguvacine], the “responses in the tactile PPI assay” value in assay [2] is given as “trend toward normalized responses”. Besides, in assay [3], the “response to an air puff stimulus alone” value was “decreased response to an air puff stimulus alone”. Further, in assay [4], the “minimal current required to produce an action potential (rheobase), excitability” value was “decreases excitability; also recorded: increase in the amount of minimal current required to produce an action potential” and the resting membrane potential result is given as “reduces resting membrane potential; also recorded: decrease in resting membrane potential”. The “rheobase compared with neurons cultured from control littermates” value in assay [5] (neurons from Shank3B^+/- and Mecp2^STOP/y mice) is “rheobase was no longer different than neurons cultured from control littermates”. Besides, in assay [5], the resting membrane potential entry is reported as “significant decrease in resting membrane potential” and the “rheobase, excitability” value is recorded as “increase in rheobase”. In assay [5] (listed as Isoguvacine), the resting membrane potential result is “reduces resting membrane potential” and the “rheobase, excitability” value is given as “decreases excitability”. Further, the “tactile hypersensitivity, as measured by the tactile PPI assay” value in assay [6] is listed as “significantly reduces tactile hypersensitivity”. Besides, the “time spent in the center of a chamber during the open field test” value in assay [7] was “enhanced the time spent in the center”.
Consider `CCN(CC)CC(=O)Nc1c(C)cccc1C` [lidocaine], for which, in the assay with control mice, the “tactile PPI” value was “abolished”.
